Where “and” joins values, the source holds several entries; their conditions need not be identical. Identical values can stand only once.
Assays:
[1] = biological target: T1, Ralstonia sp. strain 4506 phosphite dehydrogenase, SEQ ID NO: 1, C-terminal His tag fusion (PtxD4506) (Ralstonia sp. 4506, UniProt G4XDR8); assay: Activity of phosphite dehydrogenase protein in the presence of inhibitor; format: biochemical; details: 45° C., 60 minutes; for relative value of OD340 (activity in the presence of inhibitor, control = 100): 50 μL of 40 mM inhibitor in the reaction solution (500 μL in total); for activity in the presence of inhibitor (in words): 50 μL of 40 mM inhibitor in the reaction solution
T1 sequence (G4XDR8 1-336): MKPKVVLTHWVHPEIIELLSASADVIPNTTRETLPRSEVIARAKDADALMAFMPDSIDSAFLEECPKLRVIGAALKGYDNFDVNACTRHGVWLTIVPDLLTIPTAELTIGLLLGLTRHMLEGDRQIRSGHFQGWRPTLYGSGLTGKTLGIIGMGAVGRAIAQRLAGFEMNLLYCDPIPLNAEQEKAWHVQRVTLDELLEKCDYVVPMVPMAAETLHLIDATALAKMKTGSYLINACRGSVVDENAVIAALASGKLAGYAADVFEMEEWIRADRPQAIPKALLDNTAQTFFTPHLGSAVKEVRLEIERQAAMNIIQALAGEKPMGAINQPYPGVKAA
Description: (§1) By a well-known method, the base sequence of SEQ ID NO: 2 or a phosphite dehydrogenase gene (SEQ ID NO: 4) of P stutzeri WM88 was inserted into a plasmid pET21b (produced by Novagen) (an amino acid sequence of the protein encoded by the base sequence of SEQ ID NO: 4 is shown in SEQ ID NO: 3) to prepare (i) an expression vector of a fusion protein (see “PtxD4506” in FIG. 2) in which the C-terminal of the phosphite dehydrogenase protein of SEQ ID NO: 1 is labeled with a His tag or (ii) an expression vector of a fusion protein (see “PtxDPst” in FIG. 2) in which the C-terminal of the phosphite dehydrogenase protein of P stutzeri WM88 is labeled with a His tag.
(§2) The supernatant was supplied to a HisTrap column (produced by GE Healthcare) and, in accordance with protocols attached to the HisTrap column, a fusion protein in which a His tag was connected to the C-terminal of the phosphite dehydrogenase protein of SEQ ID NO: 1 was purified.
(§3) PtxD4506 and PtxDPst, which were purified with use of the HisTrap column in [3. […] An experimental method was based on a method described in the literature “Costas et al., Journal of Biological Chemistry, 2001, 276, 17429-17436.” The experimental method is briefly described below.
(§4) A reaction solution was prepared by mixing 100 μL of 100 mM MOPS-KOH (pH 7.25), 50 μL of 10 mM NAD, 5 μL of 5 mM phosphite, 50 μL of 40 mM inhibitor of various kinds (arsenite, nitrate, sulfate, or NaCl), 294 μL of H2O, and 1 μL of 0.5 mg/mL protein-containing solution (a PtxD4506-containing solution, a PtxDPst-containing solution, or a liquid which contained no protein (negative control)).
(§5) The reaction solution was reacted for 60 minutes. Note that the reaction solution containing the PtxD4506-containing solution was reacted at 45° C., and the reaction solution containing the PtxDPst-containing solution was reacted at 30° C. Subsequently, OD340 was measured. A relative value of OD340 of each sample was calculated relative to 100 of a value of OD340 of the reaction solution containing the liquid which contained no protein (negative control). Note that each experiment was conducted 4 times or more, and an average of relative values obtained in the 4 or 5 experiments was also calculated.

[2] = biological target: T2, Pseudomonas stutzeri WM88 phosphite dehydrogenase, wild type, SEQ ID NO: 3, C-terminal His tag fusion (PtxDPst) (Stutzerimonas stutzeri, UniProt O69054); assay: as above; format: biochemical; set-up: key to relative value of OD340 (activity in the presence of inhibitor, control = 100): OD340 relative to no-protein negative control = 100; details: 30° C., 60 minutes; for relative value of OD340 (activity in the presence of inhibitor, control = 100): 50 μL of 40 mM inhibitor in the reaction solution (500 μL in total); for activity in the presence of inhibitor (in words): 50 μL of 40 mM inhibitor in the reaction solution
T2 construct: His tag (C); made in house; host or cells: E. coli Rosetta2 (DE3), plasmid pET21b
T2 sequence (O69054 1-336): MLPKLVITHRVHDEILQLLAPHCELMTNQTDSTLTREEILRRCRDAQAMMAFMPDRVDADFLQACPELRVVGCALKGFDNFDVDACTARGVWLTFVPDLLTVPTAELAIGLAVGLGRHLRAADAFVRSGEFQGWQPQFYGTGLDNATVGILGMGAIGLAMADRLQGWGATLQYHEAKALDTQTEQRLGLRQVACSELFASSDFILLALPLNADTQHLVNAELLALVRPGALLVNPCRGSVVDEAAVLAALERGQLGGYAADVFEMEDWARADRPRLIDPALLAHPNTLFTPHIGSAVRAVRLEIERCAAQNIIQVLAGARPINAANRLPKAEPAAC
Description: as §1, §2, §3, §4, §5

[3] = biological target: T2, Pseudomonas stutzeri WM88 phosphite dehydrogenase, wild type, SEQ ID NO: 3, C-terminal His tag fusion (PtxDPst); assay: Reaction kinetic analysis: NADH production rate at varied NAD+ concentration; format: biochemical; details: NAD+ 0.5 μM to 200 μM, 28° C., individual experiments 1-3
Description: as §1
The supernatant was supplied to a HisTrap column (produced by GE Healthcare) and, in accordance with protocols attached to the HisTrap column, a fusion protein in which a His tag was connected to the C-terminal of the phosphite dehydrogenase protein of SEQ ID NO: 1 was purified. […]
Reaction rates of respective PtxD4506 and PtxDPst were calculated on the basis of (Reaction formula 1) shown in the section [Background Art].
Specifically, in the reaction system of (Reaction formula 1), a production rate of NADH was measured with use of 7.5 μg of each of the fusion proteins PtxD4506 and PtxDPst while a concentration of a substrate (NAD^+) was gradually changed from 0.5 μM to 200 μM. […]

[4] = biological target: T1, Ralstonia sp. strain 4506 phosphite dehydrogenase, SEQ ID NO: 1, C-terminal His tag fusion (PtxD4506); assay: as above
[5] = pH 7.25, average of 4 or 5 experiments
[6] = pH 7.25, individual experiments 1-5
[7] = NAD+ 0.5 μM to 200 μM, 40° C., individual experiments 1-3

Row | SMILES | relative value of OD340 (activity in the presence of inhibitor, control = 100) [1, 5] | relative value of OD340 (activity in the presence of inhibitor, control = 100) [1, 6] | activity in the presence of inhibitor (in words) [1] | relative value of OD340 (activity in the presence of inhibitor, control = 100) [2, 5] | relative value of OD340 (activity in the presence of inhibitor, control = 100) [2, 6] | activity in the presence of inhibitor (in words) [2] | Kcat [3] | Vmax [3] | Kcat [4, 7] | Vmax [4, 7] | Vmax of PtxD4506 relative to that of PtxDPst ([4]; NAD+, PtxD4506 at 40° C., PtxDPst at 28° C.)
1 | O[As](O)O [Arsenite] | 101.6 | 102.6 and 102.2 and 101.7 and 101.3 and 100.2 | maintained in a high level | 86.6 | 82.3 and 90.4 and 88.6 and 91.4 and 90.7 | inhibited | – | – | – | – | –
2 | O=S(=O)(O)O [sulfate] | – | – | maintained in a high level | – | – | inhibited | – | – | – | – | –
3 | O=[N+]([O-])O [Nitrate] | 35.7 | 29.2 and 39.6 and 40.2 and 40.3 and 29.3 | maintained in a high level | 18.3 | 15.3 and 21.8 and 20.3 and 20.1 and 14.0 | inhibited | – | – | – | – | –
4 | N.N.O=S(O)O [Sulfite] | 52.5 | 53.2 and 58.8 and 57.0 and 40.9 | – | 14.0 | 15.4 and 15.3 and 16.2 and 9.2 | – | – | – | – | – | –
5 | NC(=O)c1ccc[n+]([C@@H]2O[C@H](COP(=O)([O-])OP(=O)(O)OC[C@H]3O[C@@H](n4cnc5c(N)ncnc54)[C@H](O)[C@@H]3O)[C@@H](O)[C@H]2O)c1 [NAD+] | – | – | – | – | – | – | 3.235 s⁻¹ and 2.732 s⁻¹ and 2.513 s⁻¹ | 4.9 µmol/min/mg and 4.1 µmol/min/mg and 3.8 µmol/min/mg | 4.262 s⁻¹ and 4.068 s⁻¹ and 3.54 s⁻¹ | 6.4 µmol/min/mg and 6.1 µmol/min/mg and 5.3 µmol/min/mg | about 1.4 times

— patent US9273290B2, “Method for producing phosphite dehydrogenase protein and use thereof” (HIROSHIMA UNIVERSITY, priority 2011, dated 2016)
